“Also recorded” adds a separate entry of the source.
Tests used:
[1] = test system: OSBP1 localization in HCT-116 cells; experiment: OSBP1 localization by immunofluorescence microscopy, HCT-116; type: cell-based, human; settings: 4 h treatment
Experimental: Immunofluorescence microscopy. HCT-116 or A549 (adenocarcinomic human alveolar basal epithelial) cells were plated on coverslips in 6-well plates. After 72 h, the culture media was removed and replaced with media containing either compound or vehicle control. At the indicated time-points, the cells were fixed for 10 min using 3.7% formaldehyde in PBS. The coverslips were washed with PBS and permeabilized for 5 min with 0.5% Triton X-100 in PBS. Following PBS washing, the coverslips were blocked for 30 min using Image-iT™ FX (Invitrogen), washed with PBS, and then blocked for 30 min at room temperature (RT) with 1% BSA in PBS (BSA/PBS). The coverslips were then incubated overnight at 4° C. with a primary antibody solution in BSA/PBS. The coverslips were washed with BSA/PBS and incubated for 60 min at RT with Alexa Fluor®-conjugated secondary antibodies (Invitrogen) in BSA/PBS, with the final 30 min including incubation with Hoescht 33258. The coverslips were then washed sequentially with BSA/PBS, PBS, and water and finally mounted on microscope slides using Aqua Poly/Mount (Polysciences Inc.). Imaging data was acquired using Zeiss LSM 510 META scanning confocal microscope.
Although the function of OSBP1 is not yet fully elucidated, several cellular activities have been observed. For instance, OSBP1 translocates from cytoplasmic sites to the trans-Golgi network (TGN) upon addition of 25-OHC to cells. HCT-116 cells were treated with ORPphilins for short time periods (4 h) and the effects on OSBP1 localization monitored using immunofluorescence microscopy.
OSBP1 (green) and trans-Golgi protein P230 (red) were visualized in HCT-116 cells using indirect immunofluorescence microscopy. Cells were treated with compound for 4 h, fixed with 3.7% formaldehyde/PBS, washed, and permeabilized using 0.5% Triton X-100 in PBS. Proteins were labelled using specific primary antibodies against OSBP1 and P230 overnight at 4° C. After washing, cells were treated with Alexa Fluor 488 and Alexa Fluor 546 secondary antibodies for 1 h at RT.

[2] = test system: HCT-116 p21^−/− cells with OSBP1-targeting shRNA; experiment: OSBP1 shRNA knockdown/dose-shift experiment; type: cell-based, human; settings: shOSBP1 vs shNT, 72 h
Description: FIG. 3A is a series of four bar graphs depicting knockdown/dose-shift experiment in HCT-116 p21^−/− cells stably transfected with either OSBP1-targeting shRNA (shOSBP1) or non-targeting shRNA (shNT). Bars represent s.d. of three or four individual experiments. * P=0.0002 (n=3); ** P=0.0006 (n=4); *** P=0.0003 (n=3) compared to shNT cells (two-tailed students t-test).
To ascertain if the antiproliferative activity of the ORPphilins depended on the levels of OSBP1 and ORP4L in cells, short hairpin RNA (shRNA) knockdown of OSBP1 expression was performed and then its effect on the growth inhibitory activity of 1, 2, and 4a measured. […] Similar results were obtained in HeLa cells. Overexpression of OSBP1-myc-his or ORP4L-myc-his (FIG. 3C) for 48 h desensitized HeLa cells to the antiproliferative activity of 1, 2, or 4a by ˜2-5-fold (FIG. 3D). However, taxol-induced growth inhibition was not affected by overexpression of OSBP1-myc-his or ORP4L-myc-his (FIG. 3D).

[3] = molecular target: T1, OSBP1 protein levels in HCT-116 cells (Homo sapiens, UniProt P22059); experiment: OSBP1 protein levels by western blotting; type: cell-based; settings: for reduction in OSBP1 protein levels: 24 h
T1 construct: endogenous in cells; host or cells: HCT-116
T1 sequence (P22059 1-807): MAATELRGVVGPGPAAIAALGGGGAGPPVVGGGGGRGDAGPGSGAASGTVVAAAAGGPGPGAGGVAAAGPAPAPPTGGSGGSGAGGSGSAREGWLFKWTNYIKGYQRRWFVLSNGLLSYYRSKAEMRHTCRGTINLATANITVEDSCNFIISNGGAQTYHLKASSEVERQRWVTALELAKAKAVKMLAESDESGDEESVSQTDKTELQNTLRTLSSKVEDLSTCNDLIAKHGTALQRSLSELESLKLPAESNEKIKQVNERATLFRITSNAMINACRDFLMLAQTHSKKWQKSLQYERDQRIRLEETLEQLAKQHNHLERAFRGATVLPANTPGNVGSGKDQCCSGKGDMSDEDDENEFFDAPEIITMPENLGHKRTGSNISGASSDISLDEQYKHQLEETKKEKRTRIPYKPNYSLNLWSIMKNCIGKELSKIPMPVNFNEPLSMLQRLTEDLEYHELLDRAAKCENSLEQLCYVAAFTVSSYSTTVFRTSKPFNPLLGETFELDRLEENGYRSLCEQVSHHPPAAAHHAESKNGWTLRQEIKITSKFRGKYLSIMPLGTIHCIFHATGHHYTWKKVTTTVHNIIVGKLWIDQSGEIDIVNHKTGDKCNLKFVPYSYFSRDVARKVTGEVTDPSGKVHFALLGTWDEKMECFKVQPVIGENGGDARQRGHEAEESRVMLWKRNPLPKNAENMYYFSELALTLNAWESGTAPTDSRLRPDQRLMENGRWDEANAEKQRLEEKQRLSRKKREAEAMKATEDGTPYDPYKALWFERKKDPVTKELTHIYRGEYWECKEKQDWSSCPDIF
Experimental: A possible explanation for this observation was that treatment with 1 and 2 caused a decrease in OSBP1 levels. Treatment of HCT-116 cells with vehicle (DMSO) or 25-OHC (10 μM) had no effect on OSBP1 levels, as assessed by western blotting (FIG. 6A). However, treatment with 1 or 2 induced a dramatic, time-dependent reduction of OSBP1 levels (FIG. 6A). For example, 50 nM of 1 or 10 nM of 2 caused an approximately 75% reduction in OSBP1 protein levels at 24 h in HCT-116 cells (FIG. 6A), with a similar effect recorded in A549 cells. […] OSBP1 levels were determined using both an antibody recognizing the far N-terminus of OSBP1 (FIG. 6) and also an antibody recognizing the C-terminus of OSBP1.
One possible explanation for the reduction in OSBP1 levels upon treatment with 1 and 2 was proteasome-dependent degradation. To determine whether degradation of OSBP1 was proteasome dependent, proteasome inhibitors MG-132 or lactacystin were co-administered with 1 and 2. […] Similar results were obtained in A549 cells.

HCT-116 cells = experiment: Growth inhibition with 25-OHC co-administration; type: cell-based, human; settings: for effect of 25-OHC co-administration on the antiproliferative activity: 10 μM 25-OHC for 1 and 2
Experimental: 25-OHC (11) is a high-affinity ligand of OSBP1 and ORP4L that is not cytotoxic at concentrations up to 10 μM. Example 1 established that the ORPphilins compete with 25-OHC for binding to OSBP1 and ORP4L (FIG. 2D,E). Therefore, if OSBP1 and ORP4L mediate the biological activities of these compounds, co-administration of sub-lethal doses of 25-OHC with the ORPphilins should inhibit binding of the ORPphilins to OSBP1 and ORP4L, thereby desensitizing cells to the cytotoxic effects of the ORPphilins.

Molecule | OSBP1 localization [1] | sensitization by OSBP1 knockdown (GI50 shift) [2] | suppression of OSBP1 level reduction caused by 2 ([3]; 5 μM with 10 nM of 2) | effect on OSBP1 levels, compound alone ([3]; concentration not given) | effect of 25-OHC co-administration on the antiproliferative activity (HCT-116 cells) | reduction in OSBP1 protein levels ([3]; 10 nM) | cytotoxicity (HCT-116 cells; concentrations up to 10 μM, cell line not given at the place) | effect on OSBP1 levels ([3]; 10 μM) | suppression of OSBP1 level reduction caused by 2 ([3]; 25-OHC (10 M or 20 M) with 2 (1 nM)) | OSBP1 localization ([1]; listed as 1) | reduction in OSBP1 protein levels ([3]; 50 nM)
schweinfurthin A | caused OSBP1 to accumulate at perinuclear positions with a large degree of co-localization with the trans-Golgi marker p230 | 9 fold | completely suppressed | no effect |  |  |  |  |  |  | 
COc1ccc(C(=O)O[C@H]2[C@H](O[C@@H]3[C@@H](OC(C)=O)[C@H](O[C@H]4C[C@H]5[C@@H]6CC=C7C[C@@H](O)CC[C@]7(C)[C@H]6CC[C@]5(C)[C@@]4(O)[C@H](C)C(=O)CCC(C)C)OC[C@@H]3O)OC[C@@H](O)[C@@H]2O)cc1 [OSW-1] | caused OSBP1 to localize to a perinuclear position that did not co-localize with p230 | 6 fold |  |  | nearly complete desensitization | approximately 75% |  |  |  |  | 
C[C@H](CCCC(C)(C)O)[C@H]1CC[C@H]2[C@@H]3CC=C4C[C@@H](O)CC[C@]4(C)[C@H]3CC[C@]12C [Compound 25-OHC, 25-hydroxycholesterol] |  |  |  |  |  |  | not cytotoxic | no effect; also recorded: did not reduce | significantly suppressed |  | 
C[C@@H]1[C@]2(O[C@H]3C=C4[C@@H]5CC[C@H]6Cc7nc8c(nc7C[C@]6(C)[C@H]5C[C@@H](O)[C@]4(C)[C@]31O)C[C@@H]1CC[C@H]3C4=CC[C@@H]5[C@H](C)[C@@]6(OC[C@]45C(=O)C[C@@H]3[C@@]1(C)C8)OC(C)(C)C[C@H]6O)O[C@](C)(CO)C[C@H]2O [cephalostatin 1, Cephalostatin 1] | OSBP1 occupying a perinuclear position with little co-localization of the dispersed p230 marker | 4 fold |  |  | nearly complete desensitization |  |  |  |  | partially localize to the plasma membrane | approximately 75%

Source: patent US9790253B2, “OSW-1 analogs and conjugates, and uses thereof” (priority 2011, dated 2017)
